Here are results for one molecule from patent US6964959B2, “Use of a methylol-containing compound to treat tumors” (Carter Wallace, Inc., priority 1999, dated 2005).

The test system of one series is NIH-3T3. As to the kind of experiment: Flow cytometry cell cycle distribution / DNA debris, NIH-3T3. Type of series: cell-based, murine. As to the method: (§1) Three×10^5 cells were seeded in plastic tissue culture flasks. […] Control cultures received an appropriate volume of Kollidine-17P. […] The percentage of DNA debris in the sub-G0/G1 region was assessed using cytofluorometric techniques. Each bar represents the mean (±SE) of three determinations. **p≦0.01, ***p≦0.001, ****p≦0.0001
For flow cytometry studies, 1×10^6 PA-1, SKOV-3, or NIH-3T3 cells were incubated for 24 h in appropriate media containing serum. […] Control cultures for each cell line were incubated in media containing 40 μl of 5% Kollidon 17PF alone. […] For example, harvested cells were resuspended in ice cold phosphate-buffered saline at a final cell density of 2×10^6 cells/ml. The cells then were stained for 30 min at room temperature in the dark with a solution of 0.05 mg/ml propidium iodide, 0.6% Igepal, and 1% sodium citrate. Flow cytometry was performed by FACScan (Becton Dickinson, Plymouth, England) using the ModFit LT program (Becton Dickinson). Statistical analysis was performed with the Kruskal Wallis non-parametric ANOVA test followed by Dunn's multiple comparisons test using Instat.
Three×10^5 cells were seeded in plastic tissue culture flasks. […] Control cultures received an appropriate volume of Kollidine-17P. After an additional 48 h, cells were harvested, stained with propidium iodide, and cell cycle distribution assessed using cytofluorometric techniques. Each value represents the percentage of cells in the noted cell cycle phases and is the mean±SEM of three determinations.
A general note: In flow cytometry, cells or beads pass a laser one at a time.

In series [1] the test system is SKOV-3. As to the kind of experiment: Flow cytometry cell cycle distribution / DNA debris, SKOV-3. Type of series: cell-based, human. As to conditions: 48 h exposure. As to the method: as §1
For flow cytometry studies, 1×10^6 PA-1, SKOV-3, or NIH-3T3 cells were incubated for 24 h in appropriate media containing serum. […] Control cultures for each cell line were incubated in media containing 40 μl of 5% Kollidon 17PF alone. Forty-eight hours later, all cells were harvested by trypsinization and prepared for cytofluorometric analysis by standard methods. For example, harvested cells were resuspended in ice cold phosphate-buffered saline at a final cell density of 2×10^6 cells/ml. The cells then were stained for 30 min at room temperature in the dark with a solution of 0.05 mg/ml propidium iodide, 0.6% Igepal, and 1% sodium citrate. Flow cytometry was performed by FACScan (Becton Dickinson, Plymouth, England) using the ModFit LT program (Becton Dickinson). […]
Three×10^5 cells were seeded in plastic tissue culture flasks. […] After an additional 48 h, cells were harvested, stained with propidium iodide, and cell cycle distribution assessed using cytofluorometric techniques. […]

Series [2] relates to SKOV-3. As to the kind of experiment: Annexin-V FITC binding (phosphotidylserine externalization), SKOV-3. The format is cell-based, human. As to conditions: 24 h exposure. As to the method:
Three×10^5 cells were seeded in plastic tissue culture flasks. […] Control cultures received an appropriate volume of Kollidine-17P. After an additional 24 h, cells were harvested and phosphotidylserine externalization determined by assessing Annexin-V FITC binding using cytofluorometric techniques. Each bar represents the mean±SE of four determinations. **p≦0.01, ***p≦0.001
Cell membrane phosphotidylserine externalization, as a reflection of the potential induction of apoptosis, was assessed by flow cytometry methods using the ApoAlert® Annexin-V/FITC assay kit. Briefly, 1×10^6 cells were incubated for 24 h in tissue culture medium containing serum. […] Control cultures received 5% Kollidon 17PF alone. Twenty-four hours later, all cells were harvested by trypsinization. The harvested cells were resuspended in 200 μl of binding buffer and then incubated for 5-15 min in a solution containing 1 μg/ml Annexin-V FITC at room temperature in the dark. The cells were then analyzed to quantitate Annexin-V binding by cytofluorometric techniques that utilized FACScan using the ModFit LT program with statistical analysis as described above.

The subject of series [3] is human and murine tumor cell lines. As to the kind of experiment: Growth inhibition, panel of selected human and murine tumor cell lines. The format is cell-based. As to conditions: 72 h; 3 d exposure; panel of 12 selected human and murine tumor cell lines; read-out: IC50s, growth inhibition across all cell lines evaluated. As for the experimental part:
One ml of this cell suspension was added to each well of a 12 well cell culture plate that contained 3 ml of appropriate media plus serum. […] Control wells received 40 μl of 5% Kollidon 17PF alone. Seventy-two hours later, all cells were harvested by trypsinization and cell number determined electronically using a Coulter Model Z1 particle counter (Coulter Corp., Miami, Fla.) to assess cell growth inhibition. Each experiment was performed in duplicate and repeated a minimum of three times.
Cells were seeded at a density of 1-5×10^4 cells in each well of a 6 well tissue culture flask. […] After three days, cells were harvested by trypsinization and cell number determined electronically. Cell growth inhibition was determined by comparison to non-Taurolidine exposed control cultures. The IC50 was calculated as the concentration required to inhibit cell number by 50%.

Series [4] relates to human ovarian tumor cells. As to the kind of experiment: Growth of established human ovarian tumor cell colonies. The format is cell-based. The settings on record: 24-hour exposure to 50 μM; discrete colonies. As for the experimental part:
Parallel studies were carried out to assess whether disruption of cell adhesion played a role in the cytotoxic activity.

In another series the test system is PA1 human ovarian cells. As to the kind of experiment: DNA fragmentation, PA1 human ovarian cells. Type of series: cell-based. An excerpt: This DNA fragmentation was not observed in normal 3T3 cells.
Series [5] concerns HL-60 human promyelocytic cell line. As to the kind of experiment: Apoptosis induction in HL-60 cells. Type of series: cell-based. The settings on record: non-adherent cancer cell models.
The subject of series [6] is normal murine bone marrow cultures. As to the kind of experiment: Cytotoxic and apoptotic activity in normal murine bone marrow cultures. Type of series: cell-based. An excerpt:
This observation was confirmed using normal (non-tumor) primary cells derived from animals, which are known to be free of tumors.

The next series relates to glioblastoma multiforma. As to the kind of experiment: Clinical use in patients with advanced recurrent glioblastoma multiforma. Type of series: in vivo, human. As to the method:
Four patients, which were diagnosed with advanced recurrent glioblastoma multiforma, were treated with taurolidine. The prognosis for this group of patients was determined to be approximately 8 weeks of survival.

Series [7] can be described thus: Clinical tolerability in ovarian tumor and glioblastoma patients. The format is in vivo, human. As to conditions: i.p. lavage after surgery for recurrent ovarian tumors; systemic in glioblastoma. As for the experimental part: Taurolidine was administered by i.p. lavage immediately following surgery for removal of recurrent ovarian tumors. For patients with glioblastoma, Taurolidine was administered systemically.
Taurolidine was administered by i.p. lavage immediately following surgery for removal of recurrent ovarian tumors. For patients with glioblastoma, taurolidine was administered systemically.

Series [8] concerns TNF; interleukins 1, 6, and 10; VEGF; TGF. As to the kind of experiment: Angiogenesis factors in patients with metastatic colon cancer. Type of series: in vivo, human. As to conditions: treated subjects compared to subjects receiving placebo. As to the method:
Patients with metastatic colon cancer were treated with taurolidine and several factors controlling angiogenesis were measured.

A further series relates to human tumor cell lines. As to the kind of experiment: Tumor cell killing and apoptosis in culture. The format is cell-based.
Series [9] relates to MDR-transfected glioblastoma cells. As to the kind of experiment: Cytotoxicity in MDR-transfected glioblastoma cells. As to conditions: dose of 50 μM.
Source text: The neoplastic cell lines used in the survey were standard tumor cell lines, e.g., PA1 human ovarian cell line, SKOV3 human ovarian cell line, HT29 human colon tumor cell line, DU145 human prostate tumor cell line, U251 human glioblastoma cell line, U251-MDR human glioblastoma cell line transfected with DNA encoding MDR, T98G human glioblastoma cell line, SP-1 human leukemia cell line, and Daudi human leukemia cell line.
Glioblastoma cells were transfected with a gene encoding multiple drug resistance (MDR).

The structures appear in SMILES notation. “Also recorded” adds a separate entry of the source.

As for `O=S1(=O)CCN(CN2CCS(=O)(=O)NC2)CN1` [Taurolidine, Bis-(1,1-dioxoperhydro-1,2,4-thiadiazinyl-4)methane], the “cell cycle kinetics and distribution” value with NIH-3T3 (3T3, 24-hour exposure) was “significantly reduced the percentage of cells in both the S- and G2/M-phases”. For the same molecule, the “effect on cell cycle distribution” value was “increased the percentage of cells in S-phase, decreased the percentage of cells in G0/G1; also recorded: decreased the percentage of cells in G0/G1 and increased the percentage of cells in S” in the series on NIH-3T3 (NIH-3T3, 48 h exposure); “reduced the percentage of cells in the G0/G1-phase and increased the percentage of cells in both S and G2/M; also recorded: concentration-dependent decrease in the percentage of cells in G0/G1 but increased the percentage of cells in both the S-phase and G2/M” with SKOV-3 [1]. Also, the “DNA debris in the sub-G0/G1 region” value is “did not increase DNA debris; also recorded: did not significantly affect the appearance of DNA debris” with NIH-3T3 (NIH-3T3, 48 h exposure, 25-100 μM) and “significantly increased DNA debris; also recorded: resulted in the appearance of DNA debris” in the series with SKOV-3 [1] (25-100 μM). Moreover, the “increase in Annexin-V binding (Annexin-V positive cells)” value in the series with SKOV-3 [2] amounted to 3 fold. The IC50 in [3] fell in the range of 9.6 to 34.2 µM. Further, the “cytotoxic effect against the growth of established tumor cells” value in [4] is listed as “significant cytotoxic effect”. Further, the DNA fragmentation entry with PA1 human ovarian cells (PA1, 24-hour exposure) is “induced a high degree of DNA fragmentation”. Besides, the “DNA fragmentation by agarose-gel electrophoresis” value with PA1 human ovarian cells (ovarian tumor cells, 50 μM) is reported as “overt DNA fragmentation”. Further, the “apoptotic signalling events after exposure” value in series [5] is “activation of caspases 3, 8 and 9”. Moreover, the “concentrations required to inhibit cell proliferation” value in series [6] (normal murine bone marrow) is “concentrations in the mM range”. In series [6] (normal murine bone marrow cultures), the induction of apoptosis entry is recorded as “did not produce cellular changes consistent with the induction of apoptosis”. Besides, the “patients in whom the tumor mass decreased or stayed the same” value in the series with glioblastoma multiforma (20 g infused intravenously over 6 hours twice a week, at least one 5 week regimen, four patients) is on record as 3 out of the 4. In the series with glioblastoma multiforma (at 14 weeks after the initiation of therapy, prognosis approximately 8 weeks), the survival result is given as “each of the patients remains alive”. Further, the tolerability in patients entry in series [7] is listed as “well tolerated”. Besides, in [8], the “factors controlling the growth of blood vessels (TNF; interleukins 1, 6, and 10; VEGF; TGF)” value is “found to be decreased”. Also, in the series on human tumor cell lines (in culture), the “incubation time after which apoptosis of tumor cells is induced” value is “as little as one hour”. In addition, the “number of different human tumor cell lines killed” value in the series on human tumor cell lines (ovarian, breast, brain, colon, prostate, urinary bladder, lung, melanomas, mesotheliomas, laryngeal carcinomas, leukemias, lymphomas) is “at least 28”. Further, the cytotoxicity entry in series [9] was “Significant cytotoxicity”.
